Experimental data taken from ChEMBL document CHEMBL4834431, “Design of Dimeric Bile Acid Derivatives as Potent and Selective Human NTCP Inhibitors” (J Med Chem, 2021).
pIC50: −log10 of the molar value. Activity calls are given as the source filed them. The rule behind the calls is not given here.

Legend:
[1] = test system: Hepatitis B virus; experiment: Antiviral activity against HBV infected in human HepG2-NTCP cells assessed as reduction in HBeAg secretion at 111 to 1000 nM incubated for 24 hrs followed by replacement with fresh medium and measured at day 5 post infection by ELISA; format: functional, organism-based; settings: dose 111-1000 nM
[2] = target: T1, Hepatic sodium/bile acid cotransporter (Homo sapiens, UniProt Q14973); experiment: Inhibition of human NTCP-mediated [3H]-TCA uptake expressed in human HepG2 cells; format: cell-based; settings: human, hepg2
T1 sequence (Q14973 whole entry): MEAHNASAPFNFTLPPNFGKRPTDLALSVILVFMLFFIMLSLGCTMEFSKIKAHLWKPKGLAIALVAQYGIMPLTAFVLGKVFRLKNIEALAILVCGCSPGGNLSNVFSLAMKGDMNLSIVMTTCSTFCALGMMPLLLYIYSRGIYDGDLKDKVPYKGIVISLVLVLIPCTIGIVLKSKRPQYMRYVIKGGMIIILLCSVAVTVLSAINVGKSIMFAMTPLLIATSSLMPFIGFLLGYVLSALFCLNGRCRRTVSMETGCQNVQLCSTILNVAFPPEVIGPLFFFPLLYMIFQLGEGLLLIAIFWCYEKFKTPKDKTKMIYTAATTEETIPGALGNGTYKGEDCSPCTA

[3] = test system: Hepatitis delta virus; experiment: Antiviral activity against HDV infected in human HepG2-NTCP cells assessed as reduction in intranuclear accumulation of HDV delta antigen at 5 uM incubated for 24 hrs followed by replacement with fresh medium and measured at day 5 post infection by DAPI staining based confocal microscopic analysis (reference value: 12.1 %); format: functional; set-up: scale not given: the % may be the effect or the level left
[4] = test system: HepG2; experiment: Inhibition of monkey NTCP-mediated [3H]-TCA uptake expressed in human HepG2 cells; format: cell-based; settings: Macaca mulatta
[5] = test system: Hepatitis B virus; experiment: Antiviral activity against HBV infected in human HepG2-NTCP cells assessed as reduction in HBeAg secretion incubated for 24 hrs followed replacement with fresh medium and measured at day 5 post infection by ELISA; format: functional, organism-based
[6] = test system: Hepatitis B virus; experiment: Antiviral activity against HBV infected in human HepG2-NTCP cells assessed as reduction in intracellular accumulation of HBsAg at 1 uM by immunostaining based fluorescence microscopic analysis; format: functional, organism-based
[7] = target: T1, Hepatic sodium/bile acid cotransporter; experiment: Inhibition of human NTCP-mediated [3H]-TCA uptake expressed in human HepG2 cells at 2 uM; format: cell-based; settings: hepg2, 2 µM
[8] = target: T2, Hepatic sodium/bile acid cotransporter (Mus musculus, UniProt O08705); experiment: Inhibition of mouse NTCP-mediated [3H]-TCA uptake expressed in human HepG2 cells; format: cell-based
T2 sequence (O08705 whole entry): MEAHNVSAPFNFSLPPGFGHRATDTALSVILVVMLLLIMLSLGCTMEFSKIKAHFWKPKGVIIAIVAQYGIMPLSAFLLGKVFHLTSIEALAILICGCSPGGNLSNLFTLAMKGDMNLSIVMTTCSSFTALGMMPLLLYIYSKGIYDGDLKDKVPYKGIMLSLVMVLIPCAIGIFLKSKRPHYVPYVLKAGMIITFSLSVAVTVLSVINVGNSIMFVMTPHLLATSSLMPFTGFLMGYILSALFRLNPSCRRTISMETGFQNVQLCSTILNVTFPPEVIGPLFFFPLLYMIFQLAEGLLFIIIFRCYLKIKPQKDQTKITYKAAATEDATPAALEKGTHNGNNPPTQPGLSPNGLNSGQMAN

[9] = test system: Hepatitis B virus; experiment: Antiviral activity against HBV infected in human HepG2-NTCP cells assessed as reduction in HBeAg secretion at 1 uM preincubated with compound followed by viral infection by ELISA; format: functional, organism-based
[10] = test system: HepG2; experiment: Effect on NTCP surface expression in human HepG2-NTCP cells assessed as reduction in NTCP surface expression level after 2 hrs by immunostaining based assay; format: functional, cell-based
[11] = target: T3, Ileal sodium/bile acid cotransporter (Homo sapiens, UniProt Q12908); experiment: Inhibition of human ASBT-mediated [3H]-TCA uptake expressed in human HepG2 cells at 2 uM; format: cell-based; settings: hepg2, 2 µM
T3 sequence (Q12908 whole entry): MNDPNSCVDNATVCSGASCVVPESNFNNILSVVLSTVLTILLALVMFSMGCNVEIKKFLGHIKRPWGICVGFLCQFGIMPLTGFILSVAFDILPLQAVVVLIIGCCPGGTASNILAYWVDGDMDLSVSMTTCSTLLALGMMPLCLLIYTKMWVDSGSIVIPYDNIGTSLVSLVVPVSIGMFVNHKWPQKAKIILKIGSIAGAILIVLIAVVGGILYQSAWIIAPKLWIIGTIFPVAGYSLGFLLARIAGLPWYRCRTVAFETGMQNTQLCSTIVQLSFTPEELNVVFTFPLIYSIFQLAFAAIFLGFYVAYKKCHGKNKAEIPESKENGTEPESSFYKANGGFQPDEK

[12] = test system: Hepatitis B virus; experiment: Antiviral activity against HBV infected in human HepG2-NTCP cells assessed as reduction in HBeAg secretion at 1 uM pre-infected with virus followed by compound addition by ELISA; format: functional, organism-based
[13] = target: T1, Hepatic sodium/bile acid cotransporter; experiment: Inhibition of human NTCP-mediated [3H]-Estrone sulfate uptake expressed in human HepG2 cells at 2 uM; format: cell-based; settings: hepg2, 2 µM
[14] = test system: HepG2; experiment: Cytotoxicity against human HepG2 cells expressing NTCP assessed as reduction in cell viability at 10 uM after 48 hrs by alamar blue assay; format: cell-based; settings: hepg2, 48 h
[15] = target: T1, Hepatic sodium/bile acid cotransporter; experiment: Inhibition of human NTCP-mediated NQL-064 uptake expressed in human HepG2 cells incubated for 30 mins; format: cell-based; settings: hepg2, 0.5 h
[16] = test system: Hepatitis B virus; experiment: Antiviral activity against HBV infected in human HepG2-NTCP cells assessed as reduction in intracellular HBV RNA level at 1 uM by qPCR analysis; format: functional, organism-based
[17] = target: T1, Hepatic sodium/bile acid cotransporter; experiment: Inhibition of FITC-labeled HBV Pre-S1 polypeptide binding to human NTCP expressed in HepG2 cells after 2 to 3 hrs by confocal microscopic analysis; format: cell-based; settings: time 2-3 hrs
[18] = test system: Hepatitis B virus; experiment: Antiviral activity against HBV infected in human HepG2-NTCP cells assessed as reduction in intracellular accumulation of HBcAg at 1 uM by immunostaining based fluorescence microscopic analysis; format: functional, organism-based
[19] = test system: HepG2; experiment: Inhibition of tree shrew NTCP-mediated [3H]-TCA uptake expressed in human HepG2 cells; format: cell-based; settings: Scandentia
[20] = test system: Hepatitis B virus; experiment: Antiviral activity against HBV infected in human HepG2-NTCP cells assessed as reduction in HBeAg secretion preincubated for 2 hrs followed by viral infection by ELISA; format: functional, organism-based
[21] = test system: Hepatocyte; experiment: Cytotoxicity against primary tupaia hepatocytes expressing NTCP assessed as reduction in cell viability at 100 uM after 48 hrs by Cell-Titer Glo assay; format: cell-based; settings: scandentia
[22] = test system: Hepatitis B virus; experiment: Antiviral activity against HBV infected in human HepG2-NTCP cells assessed as reduction in HBeAg secretion at 1 uM compound added along with viral infection by ELISA; format: functional, organism-based
[23] = target: T1, Hepatic sodium/bile acid cotransporter; experiment: Inhibition of human NTCP-mediated NQL-065 uptake expressed in human HepG2 cells incubated for 30 mins; format: cell-based; settings: hepg2, 0.5 h
[24] = target: T4, Solute carrier organic anion transporter family member 1B1 (Homo sapiens, UniProt Q9Y6L6); experiment: Inhibition of human OATP1B1-mediated [3H]-Estrone sulfate uptake expressed in human HepG2 cells at 2 uM; format: cell-based; settings: hepg2, 2 µM
T4 sequence (Q9Y6L6 whole entry): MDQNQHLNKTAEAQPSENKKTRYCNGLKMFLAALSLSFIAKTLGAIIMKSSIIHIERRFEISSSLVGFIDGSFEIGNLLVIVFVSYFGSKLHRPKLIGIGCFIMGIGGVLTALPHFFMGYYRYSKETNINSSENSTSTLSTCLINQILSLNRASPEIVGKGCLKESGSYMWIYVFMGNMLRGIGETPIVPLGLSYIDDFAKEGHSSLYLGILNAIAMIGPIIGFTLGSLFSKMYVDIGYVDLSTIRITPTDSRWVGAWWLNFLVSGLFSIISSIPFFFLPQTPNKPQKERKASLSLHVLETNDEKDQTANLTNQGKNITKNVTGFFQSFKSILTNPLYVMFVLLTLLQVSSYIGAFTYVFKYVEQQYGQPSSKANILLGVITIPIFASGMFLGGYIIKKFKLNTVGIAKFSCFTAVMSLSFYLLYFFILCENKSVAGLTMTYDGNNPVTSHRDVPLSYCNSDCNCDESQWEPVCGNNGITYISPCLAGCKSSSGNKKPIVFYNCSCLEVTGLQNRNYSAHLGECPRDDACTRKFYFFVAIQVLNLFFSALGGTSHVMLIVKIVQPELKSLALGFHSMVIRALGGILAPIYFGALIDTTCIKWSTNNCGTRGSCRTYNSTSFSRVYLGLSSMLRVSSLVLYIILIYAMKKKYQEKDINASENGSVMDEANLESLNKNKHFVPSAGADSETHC

[25] = target: T1, Hepatic sodium/bile acid cotransporter; experiment: Inhibition of human NTCP-mediated [3H]-TCA uptake expressed in human HepG2 cells in presence of 50 % FBS; format: cell-based
[26] = target: T1, Hepatic sodium/bile acid cotransporter; experiment: Inhibition of human NTCP-mediated [3H]-TCA uptake expressed in human HepG2 cells in presence of 20 % FBS; format: cell-based
[27] = target: T1, Hepatic sodium/bile acid cotransporter; experiment: Inhibition of human NTCP-mediated [3H]-TCA uptake expressed in human HepG2 cells pretreated for 2 hrs followed by [3H]-TCA addition in absence of FBS; format: cell-based

C[C@H](CCCN(CC[C@@H](C)[C@H]1CC[C@H]2[C@@H]3[C@@H](O)C[C@@H]4C[C@H](O)CC[C@]4(C)[C@H]3CC[C@]12C)CCS(=O)(=O)O)[C@H]1CC[C@H]2[C@@H]3[C@@H](O)C[C@@H]4C[C@H](O)CC[C@]4(C)[C@H]3CC[C@]12C
Activity [1]: Active | inhibition (INH) [2]: Active | Activity [3]: 4.6% | inhibition [4]: Active | pIC50 [5]: 6.96 | Activity [6]: Active | inhibition (INH) [7]: Active | inhibition (INH) [8]: Active | Activity [9]: Active | Activity [10]: inactive | inhibition (INH) [11]: Not Active | Activity [12]: inactive | inhibition (INH) [13]: Active | Activity [14]: Non-Toxic | inhibition (INH) [15]: Active | Activity [16]: Active | inhibition (INH) [17]: Active | Activity [18]: Active | inhibition [19]: Active | Activity [20]: Active | Activity [21]: Non-Toxic | Activity [22]: Active | inhibition (INH) [23]: Active | inhibition (INH) [24]: Not Active

C[C@@H]1CCC(=O)NCCNC(=O)CC[C@@H](C)[C@H]2CC[C@H]3[C@@H]4[C@@H](O)C[C@@H]5C[C@@H](CC[C@]5(C)[C@H]4CC[C@]23C)NC(=O)CCCC(=O)N[C@@H]2CC[C@@]3(C)[C@@H](C2)C[C@H](O)[C@@H]2[C@@H]3CC[C@]3(C)[C@@H]1CC[C@@H]23
Activity [1]: Active | Activity [3]: 2.9% | pIC50 [5]: 7.00 | Activity [6]: Active | inhibition (INH) [7]: Active | Activity [9]: Active | Activity [10]: inactive | inhibition (INH) [11]: Not Active | Activity [12]: inactive | inhibition (INH) [13]: Active | Activity [14]: Non-Toxic | Activity [16]: Active | inhibition (INH) [17]: Active | Activity [18]: Active | Activity [21]: Non-Toxic | Activity [22]: Active | inhibition (INH) [24]: Not Active

C[C@@H]1CCC(=O)NC(C(=O)O)CNC(=O)CC[C@@H](C)[C@H]2CC[C@H]3[C@@H]4[C@@H](O)C[C@@H]5C[C@@H](CC[C@]5(C)[C@H]4CC[C@]23C)n2cc(nn2)CO[C@@H]2CC[C@@]3(C)[C@@H](C2)C[C@H](O)[C@@H]2[C@@H]3CC[C@]3(C)[C@@H]1CC[C@@H]23 (stereo not given in full)
pIC50 [25]: 6.78 | pIC50 [5]: 7.03 | pIC50 [26]: 6.96 | pIC50 [27]: 7.75
